In PMC8410672 (Chemistry (Weinheim an der Bergstrasse, Germany), 2021):

Key:
[1] = tested on: clinical isolates of methicillin-resistant S. aureus; assay: MIC against clinical isolates from cystic fibrosis patients; assay type: cell-based; conditions: n=20 methicillin-resistant clinical isolates; CAMHB
[2] = tested on: P. aeruginosa (Schroeter) Migula (ATCC 27853); assay: P. aeruginosa-induced bacterial peritonitis model; assay type: in vivo, Balb/c mice; conditions: 15 mg/kg i.p. single dose, n=10, 7 days, p <0.001
[3] = tested on: clinical isolates of P. aeruginosa; assay: MIC against clinical isolates from cystic fibrosis patients; assay type: cell-based; conditions: n=20 clinical isolates, CAMHB
[4] = tested on: Balb/c mice; assay: toxicity profile in mice, intraperitoneal; assay type: in vivo, mouse; conditions: Balb/c mice n=3, i.p.; very mild toxicity after 1 h, recovered after 24 h

Row | Molecule | S. aureus MICrange [1] [µM] | survival hazard ratio [HR] [2] | P. aeruginosa MIC50 ([3]; 30% MDR) [µM] | P. aeruginosa MIC90 [3] [µM] | well tolerated intraperitoneal dose (MTD) [4] [mg/kg]
1 | CN[C@H](CC(C)C)C(=O)N[C@H]1C(=O)N[C@@H](CC(N)=O)C(=O)N[C@H]2C(=O)N[C@H]3C(=O)N[C@H](C(=O)N[C@H](C(=O)O)c4cc(O)cc(O)c4-c4cc3ccc4O)[C@H](O)c3ccc(c(Cl)c3)Oc3cc2cc(c3O[C@@H]2O[C@H](CO)[C@@H](O)[C@H](O)[C@H]2O[C@H]2C[C@](C)(N)[C@H](O)[C@H](C)O2)Oc2ccc(cc2Cl)[C@H]1O [Vancomycin] | 0.5 to 1.4 |  |  |  | 
2 | Colistin |  | 0.040 | ≤ 0.2 | 0.4 | 15
